According to article PMC11062922 (Nature Chemical Biology, 2023):

Key:
ACOX1 = target: T1, ACOX1 (Homo sapiens, UniProt Q15067); test: Kinobeads two-dose competition binding: ACOX1; settings: for CATDS: sheet CATDS matrix 2, Gene Name ACOX1;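 for all read-outs here: competition of compounds with immobilized broad-spectrum kinase inhibitor beads in cell lysate at 100 and 1,000 nM, 45 min at 4 °C, bead-bound protein quantified by label-free MS versus DMSO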
T1 construct: endogenous in cells
T1 sequence (Q15067 1-660): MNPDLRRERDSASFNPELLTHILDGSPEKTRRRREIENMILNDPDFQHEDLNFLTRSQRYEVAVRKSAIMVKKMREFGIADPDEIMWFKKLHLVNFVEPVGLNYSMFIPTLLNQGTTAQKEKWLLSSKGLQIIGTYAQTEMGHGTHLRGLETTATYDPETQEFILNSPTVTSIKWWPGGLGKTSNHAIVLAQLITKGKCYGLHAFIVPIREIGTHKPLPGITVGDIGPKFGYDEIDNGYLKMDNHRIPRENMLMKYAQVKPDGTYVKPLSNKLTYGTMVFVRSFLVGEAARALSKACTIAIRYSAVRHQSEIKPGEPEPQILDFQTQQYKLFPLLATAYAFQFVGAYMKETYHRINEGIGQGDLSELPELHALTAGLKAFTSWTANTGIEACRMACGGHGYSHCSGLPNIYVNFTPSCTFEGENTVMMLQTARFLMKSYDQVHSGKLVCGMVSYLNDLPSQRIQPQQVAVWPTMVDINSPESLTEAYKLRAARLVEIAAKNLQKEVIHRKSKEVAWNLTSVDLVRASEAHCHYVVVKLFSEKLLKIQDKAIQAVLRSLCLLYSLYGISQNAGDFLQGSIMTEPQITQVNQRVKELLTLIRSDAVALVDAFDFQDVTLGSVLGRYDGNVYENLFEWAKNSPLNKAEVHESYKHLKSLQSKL

AAK1 = target: T2, AAK1 (Homo sapiens, UniProt Q2M2I8); test: Kinobeads two-dose competition binding: AAK1; settings: for CATDS: sheet CATDS matrix 2, Gene Name AAK1;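 for all read-outs here: kinobeads competition pulldown from cell lysate, compound preincubated 45 min at 4 °C, bead-bound protein measured by label-free mass spectrometry against DMSO vehicle control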
T2 construct: to maximize the representation of endogenous proteins; endogenous in cells

ABL1 = ABL1 (Homo sapiens, UniProt P00519); test: Kinobeads two-dose competition binding: ABL1; settings: sheet CATDS matrix 2; Gene Name ABL1
ABL2 = target: T3, ABL2 (Homo sapiens, UniProt P42684); test: Kinobeads two-dose competition binding: ABL2; settings: sheet CATDS matrix 2; Gene Name ABL2
T3 construct: endogenous in cells

ACAD11 = target: T4, ACAD11 (Homo sapiens, UniProt Q709F0); test: Kinobeads two-dose competition binding: ACAD11; settings: sheet CATDS matrix 2; Gene Name ACAD11
T4 construct: endogenous in cells
T4 sequence (Q709F0 1-780): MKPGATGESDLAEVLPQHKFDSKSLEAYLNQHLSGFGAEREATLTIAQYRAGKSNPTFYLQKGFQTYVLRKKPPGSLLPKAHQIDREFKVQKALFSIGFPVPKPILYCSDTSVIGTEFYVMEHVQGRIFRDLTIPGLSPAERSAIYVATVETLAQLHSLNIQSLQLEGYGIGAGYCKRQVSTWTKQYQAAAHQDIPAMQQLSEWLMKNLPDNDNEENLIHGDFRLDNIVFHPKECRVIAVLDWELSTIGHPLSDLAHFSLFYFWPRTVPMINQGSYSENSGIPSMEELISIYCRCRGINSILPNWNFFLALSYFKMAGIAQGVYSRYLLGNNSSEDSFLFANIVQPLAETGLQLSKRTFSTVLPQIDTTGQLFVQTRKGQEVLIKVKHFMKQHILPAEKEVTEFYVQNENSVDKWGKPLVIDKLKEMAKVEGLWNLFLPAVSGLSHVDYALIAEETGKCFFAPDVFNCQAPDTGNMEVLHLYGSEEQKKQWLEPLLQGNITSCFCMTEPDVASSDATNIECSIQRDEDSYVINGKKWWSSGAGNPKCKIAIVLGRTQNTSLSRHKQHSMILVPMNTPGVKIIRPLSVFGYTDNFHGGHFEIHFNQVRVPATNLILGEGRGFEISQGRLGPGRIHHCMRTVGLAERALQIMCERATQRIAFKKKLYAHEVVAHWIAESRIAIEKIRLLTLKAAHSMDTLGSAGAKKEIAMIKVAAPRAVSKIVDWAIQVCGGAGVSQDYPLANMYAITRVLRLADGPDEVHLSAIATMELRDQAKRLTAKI

T2 sequence (Q2M2I8 whole entry): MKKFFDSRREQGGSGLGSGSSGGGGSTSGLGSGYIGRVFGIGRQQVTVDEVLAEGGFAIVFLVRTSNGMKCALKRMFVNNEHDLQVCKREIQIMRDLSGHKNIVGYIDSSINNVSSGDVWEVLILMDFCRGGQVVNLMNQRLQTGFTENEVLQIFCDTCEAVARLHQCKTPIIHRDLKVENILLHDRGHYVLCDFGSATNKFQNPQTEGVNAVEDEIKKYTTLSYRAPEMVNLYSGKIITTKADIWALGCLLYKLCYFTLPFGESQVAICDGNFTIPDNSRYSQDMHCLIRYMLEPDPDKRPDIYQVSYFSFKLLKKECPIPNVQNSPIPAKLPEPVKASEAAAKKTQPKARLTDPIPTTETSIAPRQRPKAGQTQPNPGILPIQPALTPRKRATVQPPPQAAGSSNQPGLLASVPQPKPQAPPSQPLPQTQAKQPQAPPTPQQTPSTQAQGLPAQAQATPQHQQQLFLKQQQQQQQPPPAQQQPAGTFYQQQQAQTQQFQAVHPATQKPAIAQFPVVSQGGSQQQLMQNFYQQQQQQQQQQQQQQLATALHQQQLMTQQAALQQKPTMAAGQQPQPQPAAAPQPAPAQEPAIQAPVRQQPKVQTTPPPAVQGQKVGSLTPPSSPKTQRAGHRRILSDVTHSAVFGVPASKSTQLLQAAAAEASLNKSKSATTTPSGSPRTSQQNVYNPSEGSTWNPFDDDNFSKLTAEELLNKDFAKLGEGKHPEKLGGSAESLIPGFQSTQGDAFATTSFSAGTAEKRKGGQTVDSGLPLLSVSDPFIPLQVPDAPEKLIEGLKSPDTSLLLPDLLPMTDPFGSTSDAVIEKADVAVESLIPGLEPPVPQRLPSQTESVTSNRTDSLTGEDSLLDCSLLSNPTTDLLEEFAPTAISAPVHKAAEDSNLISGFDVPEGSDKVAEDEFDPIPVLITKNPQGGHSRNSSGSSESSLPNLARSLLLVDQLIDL
Sequence of ABL1 (P00519 28-1130 limits assumed): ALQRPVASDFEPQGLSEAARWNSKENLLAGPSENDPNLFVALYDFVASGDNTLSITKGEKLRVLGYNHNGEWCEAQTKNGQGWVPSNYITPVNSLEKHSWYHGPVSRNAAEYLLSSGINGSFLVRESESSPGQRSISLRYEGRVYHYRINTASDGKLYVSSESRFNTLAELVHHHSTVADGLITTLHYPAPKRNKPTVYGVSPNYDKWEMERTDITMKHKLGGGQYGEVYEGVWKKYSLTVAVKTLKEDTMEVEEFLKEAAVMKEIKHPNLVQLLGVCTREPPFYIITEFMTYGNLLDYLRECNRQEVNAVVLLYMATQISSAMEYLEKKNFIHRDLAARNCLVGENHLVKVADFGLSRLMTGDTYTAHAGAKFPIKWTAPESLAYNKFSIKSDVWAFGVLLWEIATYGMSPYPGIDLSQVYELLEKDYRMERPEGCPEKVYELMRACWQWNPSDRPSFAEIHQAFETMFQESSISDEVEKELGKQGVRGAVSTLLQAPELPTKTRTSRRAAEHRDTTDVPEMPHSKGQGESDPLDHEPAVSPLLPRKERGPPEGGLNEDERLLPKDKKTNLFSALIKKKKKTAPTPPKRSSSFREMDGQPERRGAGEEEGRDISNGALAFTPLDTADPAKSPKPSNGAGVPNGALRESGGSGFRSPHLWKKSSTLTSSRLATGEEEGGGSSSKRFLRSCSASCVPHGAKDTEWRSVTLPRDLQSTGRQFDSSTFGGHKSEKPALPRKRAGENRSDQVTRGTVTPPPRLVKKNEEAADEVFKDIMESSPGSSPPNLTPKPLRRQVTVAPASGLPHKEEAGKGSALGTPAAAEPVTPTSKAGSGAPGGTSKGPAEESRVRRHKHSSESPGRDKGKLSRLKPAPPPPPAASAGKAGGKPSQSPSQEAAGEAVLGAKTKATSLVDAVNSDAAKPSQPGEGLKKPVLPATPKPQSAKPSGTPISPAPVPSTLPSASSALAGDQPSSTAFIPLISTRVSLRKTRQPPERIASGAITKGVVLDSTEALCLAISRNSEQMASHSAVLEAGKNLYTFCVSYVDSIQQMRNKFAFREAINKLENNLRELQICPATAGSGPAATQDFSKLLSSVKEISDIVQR
T3 sequence (P42684 whole entry): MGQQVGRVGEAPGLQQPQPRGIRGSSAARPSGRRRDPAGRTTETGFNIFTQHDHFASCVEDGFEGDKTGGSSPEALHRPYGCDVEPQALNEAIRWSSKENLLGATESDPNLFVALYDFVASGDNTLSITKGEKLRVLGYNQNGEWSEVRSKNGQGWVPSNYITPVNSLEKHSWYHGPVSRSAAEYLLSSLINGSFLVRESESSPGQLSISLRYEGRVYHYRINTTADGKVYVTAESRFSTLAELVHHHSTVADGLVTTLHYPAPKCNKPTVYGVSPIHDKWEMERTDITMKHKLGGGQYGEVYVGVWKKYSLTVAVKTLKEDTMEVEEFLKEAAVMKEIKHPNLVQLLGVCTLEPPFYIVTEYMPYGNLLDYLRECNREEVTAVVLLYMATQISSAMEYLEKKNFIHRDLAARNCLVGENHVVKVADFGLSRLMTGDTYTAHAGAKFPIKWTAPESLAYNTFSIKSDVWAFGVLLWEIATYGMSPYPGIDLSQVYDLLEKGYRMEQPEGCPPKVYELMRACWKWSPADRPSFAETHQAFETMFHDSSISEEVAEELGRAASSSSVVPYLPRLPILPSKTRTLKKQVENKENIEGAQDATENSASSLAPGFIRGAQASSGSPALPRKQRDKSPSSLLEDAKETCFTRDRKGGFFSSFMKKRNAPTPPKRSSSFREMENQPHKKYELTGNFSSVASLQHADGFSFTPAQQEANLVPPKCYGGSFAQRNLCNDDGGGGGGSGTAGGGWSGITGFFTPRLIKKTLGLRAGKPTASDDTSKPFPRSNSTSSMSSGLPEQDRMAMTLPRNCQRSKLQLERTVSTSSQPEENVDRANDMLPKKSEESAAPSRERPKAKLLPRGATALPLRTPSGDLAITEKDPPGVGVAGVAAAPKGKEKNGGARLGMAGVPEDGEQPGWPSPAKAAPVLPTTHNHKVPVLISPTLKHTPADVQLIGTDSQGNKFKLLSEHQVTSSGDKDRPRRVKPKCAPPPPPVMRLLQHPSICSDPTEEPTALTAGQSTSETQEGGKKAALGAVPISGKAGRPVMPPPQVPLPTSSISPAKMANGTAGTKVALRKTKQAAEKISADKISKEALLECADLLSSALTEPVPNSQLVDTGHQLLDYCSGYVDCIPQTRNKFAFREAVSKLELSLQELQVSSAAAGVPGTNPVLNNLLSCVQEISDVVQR

Structure (SMILES)	CATDS (ACOX1)	CATDS (AAK1)	CATDS (ABL1)	CATDS (ABL2)	CATDS (ACAD11)	potency estimated from few doses (AAK1; sheet "Kinobeads Drugmatrix - all", unit inferred, same values below 1000 recur in sheet "nanomolar", read-out: Kinobeads Drugmatrix - all: apparent Kd, AAK1)	potency estimated from few doses (ACOX1; sheet "Kinobeads Drugmatrix -nanomolar" (only nanomolar interactions), read-out: Kinobeads Drugmatrix -nanomolar: apparent Kd, ACOX1)
COc1cc2nc(-c3cc(F)ccc3O)nc(N[C@@H]3CNC[C@H]3C(C)(C)O)c2cc1OC [CCT241533]	0	0	0	0	0	–	–
O=C(c1ccc(F)c(F)c1Nc1ccc(I)cc1F)N1CC(O)([C@@H]2CCCCN2)C1 [Cobimetinib, reference compound]	0	0	0	0	0	–	–
Cc1cn(-c2cc(NC(=O)c3ccc4c(c3)CN(c3cncnc3)C[C@@H]4C)cc(C(F)(F)F)c2)cn1 [Compound D2202-1]	0	0	0	0	0	–	–
COc1c(OCCCN2CCOCC2)ccc2c1N=C(NC(=O)c1cnc(N)nc1)N1CCN=C21 [Copanlisib, reference compound]	0	0	0	0	0	–	–
CCN1CCN(Cc2ccc(C(=O)Nc3ccc(C)c(Oc4ccc5c(c4)CC(=O)N5)c3)cc2C(F)(F)F)CC1 [DDR1-in-1]	0	0	0	0	0	–	–
CN(C)C(=O)/C(C#N)=C/c1ccc(-c2nc3cnc4[nH]ccc4c3n2C2CCCCC2)o1 [FM-381]	0	0	0	0	0	> 1000 nM	–
O=S(=O)(c1cccc2cnccc12)N1CCCNCC1 [Fasudil, reference compound]	0	0	0	0	0	–	–
COc1cc(Nc2ncc(F)c(Nc3ccc4c(n3)N(COP(=O)(O)O)C(=O)C(C)(C)O4)n2)cc(OC)c1OC [Fostamatinib, reference compound]	0	0	0	0	0	–	–
COc1ccc2ncnc(Nc3ccc(OCc4ccccc4)cc3)c2c1 [GI261520A]	0	0	0	0	0	–	–
Oc1ccc2ncnc(Nc3ccc(OCc4ccccc4)cc3)c2c1 [GI262866A]	0.07628	0	0	0	0	–	830 nM
c1ccc(Cc2nc3ccc(Nc4ncnc5ccccc45)cc3[nH]2)cc1 [GR269666A_KCGS]	0	0	0	0	0	–	–
CC1=C(C(=O)Nc2ccc3[nH]ncc3c2)C(c2ccc(F)cc2)NC(=O)N1 (centres unmarked) [GSK180736A]	0	0	0	0	0	–	–
Cc1cnc(N)c(/C=C/c2cncc(C(=O)NCCc3ccc(Cl)cc3Cl)c2)c1 [GSK190937A]	0	0	0	0	0	–	–
O=C(O[C@H]1CN[C@H](C#Cc2cc3ncnc(Nc4ccc5c(cnn5Cc5ccccc5)c4)c3s2)C1)N1CCOCC1 [GSK200398A_KCGS]	0	0	0	0	0	–	–
COc1cc2ncn(-c3cc(OCC4CCCCC4)c(C(N)=O)s3)c2cc1OC [GSK204559A]	0	0	0	0	0	–	–

Second part, led by results:

CATDS (ACOX1)	CATDS (AAK1)	CATDS (ABL1)	CATDS (ABL2)	CATDS (ACAD11)	potency estimated from few doses (AAK1; sheet "Kinobeads Drugmatrix - all", unit inferred, same values below 1000 recur in sheet "nanomolar", read-out: Kinobeads Drugmatrix - all: apparent Kd, AAK1)	Structure (SMILES)	potency estimated from few doses (ACOX1; sheet "Kinobeads Drugmatrix -nanomolar" (only nanomolar interactions), read-out: Kinobeads Drugmatrix -nanomolar: apparent Kd, ACOX1)
0	0	0	0	0	–	COc1cc(Nc2ccnc3ccc(Br)cc23)cc(OC)c1OC [CA93.0]	–
0	0	0	0	0	–	COc1cc(Nc2cnc(C#N)c(O[C@H](C)CN(C)C)n2)ncc1-c1cnn(C)c1 [CCT244747]	–
0	0	0	0	0	–	COc1cc2nccc(Oc3ccc(NC(=O)C4(C(=O)Nc5ccc(F)cc5)CC4)cc3)c2cc1OC [Cabozantinib, reference compound]	–
0	0	0	0	0	–	Cc1cc(Nc2ncc(Cl)c(Nc3ccccc3S(=O)(=O)C(C)C)n2)c(OC(C)C)cc1C1CCNCC1 [Ceritinib, reference compound]	–
0	0	0	0	0	–	Cn1cc(C2=C(c3cn(C4CCN(Cc5ccccn5)CC4)c4ccccc34)C(=O)NC2=O)c2ccccc21 [Enzastaurin, reference compound]	–
0	0	0	0	0	–	Fc1ccc(-c2nc3n(c2-c2ccncc2)CCS3)cc1 [GI98581X]	–
0	0	0	0	0	–	O=C1Nc2ccccc2/C1=C1\CCc2cc(O)ccc21 [GR105659X]	–
0	0	0	0	0	–	CNS(=O)(=O)c1ccc(N(C)C)c(Nc2ncnc3cc(OC)c(OC)cc23)c1 [GSK114]	–
0	0	0	0	0	–	CN(C)C(=O)O[C@H]1CN[C@H](C#Cc2cc3ncnc(Nc4ccc(OCc5cccc(F)c5)c(Cl)c4)c3s2)C1 [GSK182497A]	–
0	0	0	0	0	–	CCNC(=O)O[C@H]1CN[C@H](C#Cc2cc3ncnc(Nc4ccc(OCc5cccc(F)c5)c(Cl)c4)c3s2)C1 [GSK192082A]	–
0	0	0	0	0	–	O=C(Nc1cccc(-c2nn3ncccc3c2-c2ccnc(Nc3ccccc3)n2)c1)c1c(F)cccc1F [GSK198271A]	–
0	0	0	0	0	–	COc1cc2ncn(-c3cc(OCC4CCCO4)c(C(N)=O)s3)c2cc1OC (centres unmarked) [GSK204607A]	–
0	0	0	0	0	–	COc1ccc2nc(-c3cccc(C)n3)nc(Nc3ccncc3)c2c1 [GSK204919_KCGS]	–
0	0	0	0	0	–	COc1cc2ncn(-c3cc(OCCc4ccccc4)c(C(N)=O)s3)c2cc1OC [GSK204925A]	–
0	0	0	0	0	–	Cc1cccc(-c2cc(Nc3ccncc3)c3ccccc3n2)n1 [GSK223675A]	–
